“Also recorded” adds a separate entry of the source.
Key:
alcohol oxidase = assay: IPdR conversion by alcohol oxidase; format: biochemical; conditions: purified preparation
Text: (§1) In order to determine which enzyme is responsible for the catalysts of this IPdR oxidation, a series of known oxido-reductases which have similar capability to oxidize a carbon atom with an adjacent amino group into a carbonyl functionality were explored for their ability to catalyze IPdR oxidation. […] A mixed function oxidase system prepared from the microsome of rat liver a broad spectrum of substrates and is NADPH dependent. […] Alcohol dehydrogenase (which can be obtained from Sigma) and alcohol oxidase (which can be obtained from Sigma) both reside in the soluble fraction of liver cell extracts, but the conversion of IPdR to […] was not detected with purified preparation of either enzyme under the same conditions that they converted their natural substrates effectively. […]

aldehyde oxidase = assay: Substrate specificity of the conversion of RPdR to RUdR; format: in vitro ADME, rat; conditions: substrate 180 μM; 2 to 4 separate experiments; in nmol/mg/min
Experimental: Rat hepatic tissue was washed with ice-cold 1.15% KCl and blotted dry. The tissue was then homogenized with a tissue homogenizer, in a volume of 1.15% KCl that was 3 times the tissue weight, to form a 25% (w/v) homogenate. The homogenate was then centrifuged at 10,000 g for 10 minutes at 4° C. The resulting supernatant was filtered through Miracloth (similar to cheese cloth) then dialyzed overnight against 50 mM Tris-HCl buffer pH 7.5 and stored at -80° C. before use. Rat hepatocytes were obtained by a perfusion technique then the cells were extracted with 10 mM phosphate buffer, pH 7.5, containing 1M KCl and dialyzed for 4 hours against 50 mM Tris-HCl buffer pH 7.5.
For the standard assay condition, the reaction mixture contained 50 mM Tris-HCl, pH 7.5, 1 mM EDTA, 180 μM of IPdR (or its analogs) and approximately 0.01 mg protein of 10,000 g supernatant of tissue homogenate in a final volume of 500 μl and the incubation was at 37° C. for 10 minutes unless specified otherwise. 300 μl of reaction mixture was removed at the end of incubation and mixed with 630 μl acetonitrile then agitated. The precipitated protein were removed by centrifugation and the supernatant was lyophilized to dryness. The samples were reconstituted to the original aliquot volume with the HPLC mobile phase buffer and analyzed on a Alltech RP-18 column. IPdR, IUdR and IU were detected at a UV absorption wavelength of 230 nm, and IPdR was also detected at a UV absorption wavelength of 335 nm. The mobile phase was 10% acetonitrile/90%mM ammonium acetate, pH 6.8 and the flow rate was 1 ml/minute. Standard curves of IPdR and IUdR were established from the integration value of known concentrations.
Several 2-pyrimidinone deoxyribose analogs were examined for the conversion to their deoxyuridine counterparts. […] Nevertheless the relative Vmax for IPdR in the reaction at pH 7.5 and pH 9.5 is the same. […] The synthetic substrates for aldehyde oxidase appear to be better than its natural substrates, N^1 -methylnicotinamide and acetaldehyde, as judged by the potency of inhibition of N^1 -methylnicotinamide and acetaldehyde to the IPdR oxidation reaction (Table IV). The rate of reactivity of the liver enzyme with different IPdR analogs follows the order EPdR, IP, IPdR, 5-bromo-2-pyrimidinone deoxyribose (BPdR) and 5-methyl-2-pyrimidinone deoxyribose (MPdR) or 5-ethyl-2-pyrimidinone deoxyribose (EtPdR) (Table V). Electronegative substituents in the 5-position seemed to increase the substrate activity in this oxidation reaction.
Substrate specificity of the conversion of […]

Xanthine oxidase = conditions: shown previously (Lewandowski et al. 1989); cited from earlier work
[1] = test system: bone marrow, gut and liver tissue; assay: Thymidine replacement in tissues of athymic nude mice; format: in vivo
Experimental: Mice were administered daily oral dosages of 0, 100, 250 and 500 mg/kg. Percent dThd replacement as indicative of IPdR incorporation into bone marrow, gut and liver tissue was assayed according to known methods. […] Results presented in FIG. 6 are mean percent thymidine replacement ± one standard error of the mean. N is greater or equal to 3 for each dose.

[2] = test system: mixed function oxidase system; assay: IPdR oxidation by mixed function oxidase system from rat liver microsomes; format: in vitro ADME; conditions: with or without NADPH
Text: as §1

rat liver homogenate = assay: HPLC time course of conversion of IPdR by rat liver homogenate; format: in vitro ADME
Experimental: FIGS. 1A-1C depict HPLC profiles of the conversion of IPdR to IUdR by liver homogenate. IPdR was incubated with rat liver homogenate. For control reactions, a portion of the supernatant was boiled for 5 minutes to inactivate all enzymes before use. The assay condition was as described hereinafter except 60 μl of the 100,000 g×60 minute supernatant (equivalent to approximately 0.5 mg protein/ml) was used in a reaction volume of 1500 μl . […]
For the standard assay condition, the reaction mixture contained 50 mM Tris-HCl, pH 7.5, 1 mM EDTA, 180 μM of IPdR (or its analogs) and approximately 0.01 mg protein of 10,000 g supernatant of tissue homogenate in a final volume of 500 μl and the incubation was at 37° C. for 10 minutes unless specified otherwise. […] The samples were reconstituted to the original aliquot volume with the HPLC mobile phase buffer and analyzed on a Alltech RP-18 column. IPdR, IUdR and IU were detected at a UV absorption wavelength of 230 nm, and IPdR was also detected at a UV absorption wavelength of 335 nm. […]
To study the conversion of IPdR to IUdR by liver enzyme the metabolites of IPdR were analyzed after incubation with a supernatant of rat liver homogenate using a reverse phase HPLC technique. IPdR and IUdR could be detected at an absorption wavelength of 230 nm but only IPdR could be detected at 335 nm. […]

For `O=c1ncc(I)cn1[C@H]1C[C@H](O)[C@@H](CO)O1` [IPdR, 1-(2-deoxy-β-D-ribofuranosyl)-5-(iodo)-2-pyrimidinone], the “conversion of IPdR by alcohol oxidase” value (alcohol oxidase) is listed as “not detected”, the “Conversion of RPdR to RUdR” value (aldehyde oxidase) is listed as 11 ± 2 and the “conversion of IPdR to IUdR by xanthine oxidase” value (Xanthine oxidase) is listed as “could not be converted to IUdR”. The “incorporation of IUdR into liver” value ([1]; oral, 100, 250, 500 mg/kg daily) was “No incorporation of IUdR into liver was found”, the “percent thymidine replacement in bone marrow and gut” value ([1]; oral, 100, 250, 500 mg/kg daily (FIG. 6)) was “relatively low; also recorded: relatively small amounts” and the “IPdR oxidase activity of rat liver microsomal fraction” value [2] was “no IPdR oxidase activity”. The “conversion of IPdR to IUdR over time” value (rat liver homogenate; 37° C., 0, 15, 30 minutes (FIG. 1)) was “time dependent conversion of IPdR to IUdR” and the “product produced from IPdR” value (rat liver homogenate; IUdR) was “IUdR appeared to be the only product”.

Source: US5728684A, “Determination of prodrugs metabolizable by the liver and therapeutic use thereof” (priority 1994, dated 1998)
